Laboratory results: US10128078B2, “Protective agent for electron microscopic observation of biological sample in water-containing state, kit for electron microscopic observation, methods for observation, diagnosis, evaluation, and quantification by electron microscope, and sample stage” (JAPAN SCIENCE AND TECHNOLOGY AGENCY, priority 2014, dated 2018)

Key:
artificial human skin = test: SEM observation of three-dimensionally cultured artificial human skin after adding a drug (side effect evaluation); type: cell-based; details: 60 minutes after gefitinib dissolved in DMSO was added; SEM 2,500-fold; DMSO control kept normal morphology
Experimental: (§1) A protective agent for electron microscopic observation and a surfactant-containing solution were prepared in the same manner as in Example 1.
The artificial human skin obtained by sterically three-dimensionally culturing a normal human skin cell was treated with the protective agent for electron microscopic observation and the surfactant-containing solution in 60 minutes after gefitinib was added the artificial human skin. Thereafter, the artificial human skin covered with the surfactant-containing solution was introduced into the sample chamber of the SEM, irradiated with an electron beam to polymerize the surfactant-containing solution and thus to form a thin film, and subjected to the SEM observation (Example 12).
FIGS. 18A and 18B are photographs of the three-dimensionally cultured artificial human skin. FIG. 18A is a photograph which illustrates the artificial human skin being cultured and the culture vessel. In addition, FIG. 18B is a photograph of the HE-stained pathological section of the artificial human skin of FIG. 18A. FIG. 19(a) is an image of the artificial human skin which was observed and taken at a magnification of 2,500-fold by a SEM after gefitinib dissolved in dimethyl sulfoxide (DMSO) was added the artificial human skin. […]

[1] = test system: metastatic human melanoma cell line; test: SEM observation of metastatic human melanoma cell line inoculated on a cell sheet of normal human skin cell after adding an anti-cancer drug; type: cell-based; details: 60 minutes after sorafenib was added; cell sheet of human skin-derived fibroblast cell; SEM image
Experimental: as §1
A cell sheet obtained by culturing a normal human skin cell in a plate shape was inoculated with a metastatic human melanoma cell line and treated with the protective agent for electron microscopic observation and the surfactant-containing solution in 60 minutes after sorafenib of a kind of anti-cancer drug was added the cell sheet. Thereafter, the metastatic human melanoma cell line covered with the surfactant-containing solution was introduced into the sample chamber of the SEM, irradiated with an electron beam to polymerize the surfactant-containing solution and thus to form a thin film, and subjected to the SEM observation.
FIG. 17(a) is an image of the metastatic human melanoma cell line which was inoculated onto a cell sheet of the human skin-derived fibroblast cell, to which sorafenib was added, and which was observed and taken at a magnification of 1000-fold by a SEM. In addition, FIG. 17(b) is an image of FIG. 17(a) which was observed and taken at a magnification of 5000-fold by a SEM.

| Structure (SMILES) | surface change of a skin cell (side effect) (artificial human skin) | extension of a microfiber and invasion of the melanoma cell line into the normal skin cell [1] |
| --- | --- | --- |
| COc1cc2ncnc(Nc3ccc(F)c(Cl)c3)c2cc1OCCCN1CCOCC1 [gefitinib] | peeled off in a scale shape | – |
| CNC(=O)c1cc(Oc2ccc(NC(=O)Nc3ccc(Cl)c(C(F)(F)F)c3)cc2)ccn1 [sorafenib] | – | not able to extend a microfiber so that the invasion thereof is suppressed |
